Columns and labels:
[1] = molecular target: T1, Recombinant full-length human IDO1 (Homo sapiens, UniProt P14902); experiment: IDO1 enzymatic assay (NFK quantified by LCMS); type: biochemical; settings: 2 nM enzyme, 5 μM L-tryptophan, 30 min pre-incubation, pH6.5; mean if measured multiple times; read-out: hIDO activity (IC50 in nM)
T1 construct: Recombinant full-length human IDO1 with a N-terminal hexahistidine tag; hexahistidine (N); made in house; host or cells: E. coli
Experimental: 1) Testing Compounds for IDO Inhibitory Activity in an IDO1 Enzymatic Assay:
Recombinant full-length human IDO1 with a N-terminal hexahistidine tag expressed in E. coli and purified to homogeneity is incubated at a final concentration of 2 nM in assay buffer consisting of 37.5 mM phosphate buffer at pH6.5 supplemented with 10 mM ascorbic acid, 0.45 μM methylene blue, 50 U/ml catalase, 0.01% BSA, and 0.01% Tween 20 (protocol modified from Seegers et al, JBS 2014). Example compounds are serially diluted in DMSO, further diluted in phosphate buffer, and added to the enzyme at final concentrations ranging from 10 μM to 0.5 nM. The final DMSO concentration is 0.6%. Following a pre-incubation of 30 minutes at RT, the reaction is started by the addition of L-tryptophan at a final concentration of 5 μM in assay buffer. After 30 minutes of incubation at RT, 3 μL of the 20 μl reaction mixture are transferred to a 384 deep well plate containing 25 μL of deionized water. 100 μl of 200 nM L-Tryptophan-(indole-d5) in cold 100% methanol are added followed by a 10 minutes centrifugation at 3220×g at 4° C. An additional 75 μL of deionized water are then added followed by a 10 minutes centrifugation at 3220×g at 4° C. The product of the reaction N′-Formylkynurenine (NFK) is quantified by LCMS and normalized to the L-Tryptophan-(indole-d5) signal. Samples with 0.6% DMSO (0% effect) and a TDO/IDO inhibitor (100% effect) are used as control samples to set the parameters for the non-linear regression necessary for the determination of the half-maximal inhibitory concentration (IC50) for each compound. For each compound concentration the percentage of activity compared to 0% and 100% effect is calculated as average±STDEV (each concentration measured in duplicate). IC50 values and curves are generated with XLfit software (IDBS) using Dose-Response One Site model 203 (four parameter logistic curve model). The calculated IC50 values may fluctuate depending on the daily assay performance. Fluctuations of this kind are known to those skilled in the art. When compounds are measured multiple times, mean values are given.

[2] = molecular target: T2, Recombinant human TDO comprising amino acids 19-407 (Homo sapiens, UniProt P48775); experiment: TDO2 enzymatic assay (NFK quantified by LCMS); type: biochemical; settings: 15 nM enzyme, 200 μM L-tryptophan, 30 min pre-incubation, pH7; mean if measured multiple times; read-out: hTDO activity (IC50 in nM)
T2 construct: human TDO comprising amino acids 19-407; hexahistidine (N); made in house; host or cells: E. coli
T2 sequence (P48775 19-406 limits assumed): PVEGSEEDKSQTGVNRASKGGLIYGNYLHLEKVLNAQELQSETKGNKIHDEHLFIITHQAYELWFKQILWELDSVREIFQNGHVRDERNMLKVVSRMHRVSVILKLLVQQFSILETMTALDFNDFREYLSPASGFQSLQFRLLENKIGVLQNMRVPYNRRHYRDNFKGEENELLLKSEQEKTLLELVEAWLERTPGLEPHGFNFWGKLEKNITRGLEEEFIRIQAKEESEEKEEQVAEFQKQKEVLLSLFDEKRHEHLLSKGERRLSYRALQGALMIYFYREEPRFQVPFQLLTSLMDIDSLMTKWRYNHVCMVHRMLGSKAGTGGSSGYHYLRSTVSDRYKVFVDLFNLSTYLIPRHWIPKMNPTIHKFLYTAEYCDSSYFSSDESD
Experimental: 2) Testing Compounds for TDO Inhibitory Activity in a TDO2 Enzymatic Assay:
Recombinant human TDO comprising amino acids 19-407 with a N-terminal hexahistidine tag expressed in E. coli and purified to homogeneity is incubated at a final concentration of 15 nM in assay buffer consisting of 75 mM phosphate buffer at pH7 supplemented with 100 μM ascorbic acid, 50 U/ml Catalase, 0.01% BSA, and 0.01% Tween 20 (protocol modified from Seegers et al, JBS 2014). Example compounds are serially diluted in DMSO, further diluted in phosphate buffer, and added to the reaction mixture at final concentrations ranging from 10 μM to 0.5 nM. The final DMSO concentration is 0.6%. Following a pre-incubation of 30 minutes at RT, the reaction is started by the addition of L-tryptophan at a final concentration of 200 μM in assay buffer. After 30 minutes of incubation at RT, 3 μL of the reaction mixture are transferred to a 384 deep well plate containing 25 μL of deionized water. 100 μl of 200 nM L-Tryptophan-(indole-d5) in cold 100% methanol are added followed by a 10 minutes centrifugation at 3220×g at 4° C. An additional 75 μL of deionized water are then added followed by a 10 minutes centrifugation at 3220×g at 4° C. The product of the reaction N′-Formylkynurenine (NFK) is quantified by LCMS and normalized to the L-Tryptophan-(indole-d5) signal. Samples with 0.6% DMSO (0% effect) and a TDO/IDO inhibitor (100% effect) are used as control samples to set the parameters for the non-linear regression necessary for the determination of the half-maximal inhibitory concentration (IC50) for each compound. For each compound concentration the percentage of activity compared to 0% and 100% effect is calculated as average±STDEV (each concentration measured in duplicate). IC50 values and curves are generated with XLfit software (IDBS) using Dose-Response One Site model 203 (four parameter logistic curve model). The calculated IC50 values may fluctuate depending on the daily assay performance. Fluctuations of this kind are known to those skilled in the art. When compounds are measured multiple times, mean values are given.

IDO1 in SKOV3 cells = molecular target: T3, IDO1 in SKOV3 cells (Homo sapiens, UniProt P14902); experiment: Cell-based IDO inhibitory activity in IFNγ-stimulated SKOV3 cells (NFK + kynurenine by LCMS); settings: IFNγ 50 ng/ml, 200 uM L-tryptophan, 24 hours
T3 construct: SKOV3 cells (NCI, No. 0503405) which upregulate IDO1 after stimulation with IFNγ; host or cells: SKOV3 cells stimulated with IFNγ
T3 sequence (P14902 whole entry): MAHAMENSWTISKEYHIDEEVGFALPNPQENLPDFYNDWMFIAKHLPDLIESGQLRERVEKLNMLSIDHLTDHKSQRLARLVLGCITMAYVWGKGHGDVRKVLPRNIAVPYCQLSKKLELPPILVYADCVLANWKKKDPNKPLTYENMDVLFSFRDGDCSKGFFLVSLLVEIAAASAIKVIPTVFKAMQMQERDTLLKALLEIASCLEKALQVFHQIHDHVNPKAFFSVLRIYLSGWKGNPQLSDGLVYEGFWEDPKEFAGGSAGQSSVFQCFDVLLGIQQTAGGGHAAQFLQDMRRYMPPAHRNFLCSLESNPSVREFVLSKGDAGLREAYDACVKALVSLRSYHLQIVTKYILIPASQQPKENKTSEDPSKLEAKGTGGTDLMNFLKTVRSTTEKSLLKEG
Excerpt: 3) Testing Compounds for IDO/TDO Inhibitory Activity and Toxicity in Cell-Based Assays
SW48 cells (ATCC, CCL-231) are used to measure compounds for TDO inhibitory activity and are routinely maintained in DMEM high glucose/GlutaMAX™/pyruvate 90% (v/v), FCS 10% (v/v), Penicilin/streptomycin 1% (v/v). SKOV3 cells (NCI, No. 0503405) which upregulate IDO1 after stimulation with IFNγ are used to measure compounds for IDO inhibitory activity. SKOV3 cells are routinely maintained in RPMI 90% (v/v), FCS 10% (v/v), Penicilin/streptomycin 1% (v/v). SW48 or SKOV3 cells are seeded in 384 well plates at a density of 8000 cells in 45 ul per well or 4000 cells in 45 ul per well, respectively. Plates are incubated at 37° C./5% CO2 for 24 hours. On the next day, 10 ul compound in serial dilutions (tested concentration range 10 uM-40 nM) and 200 uM L-tryptophan are added (SKV03 receive in addition IFNγ at a final concentration of 50 ng/ml). After 24 hours of incubation at 37° C./5% CO2, 3 ul of the supernatant per well is transferred to 25 ul H2O per well in a 384 deep well plate and 25 ul of the supernatant per well is transferred to waste. The SKOV3 and SW48 cell plates with 25 ul supernatant per well remaining are used to measure viability (see below). The 384 deep well plate containing 3 ul supernatant and 25 ul H2O per well are further processed for LCMS: After the addition of 100 ul L-tryptophan-(indole-d5) (Sigma 615862) at 200 nM in methanol, the 384 deep well plates are centrifuged for 10 minutes at 3220×g at 4° C., 75 ul H2O is added per well and plates centrifuged again for 10 minutes at 3220×g at 4° C. N-formylkynurenine and kynurenine are quantified by LCMS, normalized to the internal standard L-tryptophan-(indole-d5) and the sum is calculated. Samples with 0.2% DMSO (0% effect) and a TDO/IDO inhibitor (100% effect) are used as control samples to set the parameters for the non-linear regression necessary for the determination of the IC50 for each compound. For each compound concentration the percentage of activity compared to 0% and 100% effect is calculated as average±STDEV (each concentration measured in duplicate). IC50 values and curves are generated with XLfit software (IDBS) using Dose-Response One Site model 203. The calculated IC50 values may fluctuate depending on the daily cellular assay performance. Fluctuations of this kind are known to those skilled in the art. When compounds are measured multiple times, mean values are given.

T1 sequence (P14902 whole entry): as above

SMILES | IC50 [1] | IC50 [2] | IC50 (IDO1 in SKOV3 cells)
CCc1ccc2cncn2c1C(O)c1cn(-c2cc(F)c(OC)cc2F)nn1 (racemic) [Example 35, rac-[1-(2,5-Difluoro-4-methoxy-phenyl)-1H-[1,2,3]triazol-4-yl]-(6-ethyl-imidazo[1,5-a]pyridin-5-yl)-methanol] | 3.39 nM | > 10200 nM | 3.05 nM
O[C@@H](c1cn(-c2ccc(N3CC4(COC4)C3)cc2)nn1)c1c(C2CC2)ncc2cncn12 [Example 45, (R)-(6-Cyclopropyl-imidazo[1,5-a]pyrazin-5-yl)-{1-[4-(2-oxa-6-aza-spiro[3.3]hept-6-yl)-phenyl]-1H-[1,2,3]triazol-4-yl}-methanol] | 15 nM | > 10200 nM | 56.8 nM
CC(C)(O)COc1ccc(-n2cc(C(O)c3c(C4CC4)ncc4cncn34)nn2)cc1 (racemic) [Example 18, rac-1-(4-{4-[(6-Cyclopropyl-imidazo[1,5-a]pyrazin-5-yl)-hydroxy-methyl]-[1,2,3]triazol-1-yl}-phenoxy)-2-methyl-propan-2-ol] | 33.2 nM | > 10200 nM | 140 nM
COc1ccc(-n2nnc([C@H](O)c3c(Cl)ccc4cncn34)c2C)cc1 [Example 20a, (R)-(6-Chloro-imidazo[1,5-a]pyridin-5-yl)-[1-(4-methoxy-phenyl)-5-methyl-1H-[1,2,3]triazol-4-yl]-methanol] | 1.84 nM | 2190 nM | 10.7 nM
Cc1c(C(O)c2c(C3CC3)ncc3cncn23)nnn1-c1ccccc1F (racemic) [Example 57, rac-(6-Cyclopropyl-imidazo[1,5-a]pyrazin-5-yl)-(1-(2-fluoro-phenyl)-5-methyl-1H-[1,2,3]triazol-4-yl-methanol] | – | > 10200 nM | 333 nM
Cc1c(C(O)c2c(C3CC3)ncc3cncn23)nnn1-c1ccc(F)cc1F (racemic) [Example 54, rac-(6-Cyclopropyl-imidazo[1,5-a]pyrazin-5-yl)-[1-(2,4-difluoro-phenyl)-5-methyl-1H-[1,2,3]triazol-4-yl]-methanol] | – | > 10200 nM | 364 nM
COc1ccc(-n2cc([C@H](O)c3c(C4CC4)ncc4cncn34)nn2)cc1Br [Example 23, (R)-[1-(3-Bromo-4-methoxy-phenyl)-1H-[1,2,3]triazol-4-yl]-(6-cyclopropyl-imidazo[1,5-a]pyrazin-5-yl)-methanol] | 9.61 nM | – | 51.9 nM
O[C@@H](c1cn(-c2cc(F)c(OCC3(F)COC3)cc2F)nn1)c1c(C2CC2)ncc2cncn12 [Example 52, (R)-(6-Cyclopropyl-imidazo[1,5-a]pyrazin-5-yl)-{1-[2,5-difluoro-4-(3-fluoro-oxetan-3-ylmethoxy)-phenyl]-1H-[1,2,3]triazol-4-yl}-methanol] | – | > 10200 nM | 18.1 nM
COc1ccc(-n2nnc(C(O)c3c(Cl)ccc4cncn34)c2Cl)cc1 (racemic) [Example 51, rac-(6-Chloro-imidazo[1,5-a]pyridin-5-yl)-[5-chloro-1-(4-methoxy-phenyl)-1H-[1,2,3]triazol-4-yl]-methanol] | – | 7040 nM | 145 nM
O[C@@H](c1cn(-c2cc(F)c(OCC3COC3)cc2F)nn1)c1c(C2CC2)ncc2cncn12 [Example 53, (R)-(6-Cyclopropyl-imidazo[1,5-a]pyrazin-5-yl)-{1-[2,5-difluoro-4-(oxetan-3-ylmethoxy)-phenyl]-1H-[1,2,3]triazol-4-yl}-methanol] | – | > 10200 nM | 27.4 nM
CC(C)(O)COc1cc(F)c(-n2cc([C@H](O)c3c(C4CC4)ncc4cncn34)nn2)cc1F [Example 56, 1-(4-{4-[(R)-(6-Cyclopropyl-imidazo[1,5-a]pyrazin-5-yl)-hydroxy-methyl]-[1,2,3]triazol-1-yl}-2,5-difluoro-phenoxy)-2-methyl-propan-2-ol] | – | > 10200 nM | 29.3 nM
COc1cc(F)c(-n2nnc(C(O)c3c(C4CC4)ncc4cncn34)c2C)cc1F (racemic) [Example 55, rac-(6-Cyclopropyl-imidazo[1,5-a]pyrazin-5-yl)-[1-(2,5-difluoro-4-methoxy-phenyl)-5-methyl-1H-[1,2,3]triazol-4-yl]-methanol] | – | > 10200 nM | 35 nM
Cc1c(C(O)c2c(Cl)ccc3cncn23)nnn1-c1ccc(OCCC(C)(C)O)c(Cl)c1 (racemic) [Example 49, rac-4-(2-Chloro-4-{4-[(6-chloro-imidazo[1,5-a]pyridin-5-yl)-hydroxy-methyl]-5-methyl-[1,2,3]triazol-1-yl}-phenoxy)-2-methyl-butan-2-ol] | – | 8360 nM | 10.2 nM
Cc1c(C(O)c2c(Cl)ccc3cncn23)nnn1-c1ccc(OCCC(C)(C)O)c(F)c1 (racemic) [Example 50, rac-4-(4-{4-[(6-Chloro-imidazo[1,5-a]pyridin-5-yl)-hydroxy-methyl]-5-methyl-[1,2,3]triazol-1-yl}-2-fluoro-phenoxy)-2-methyl-butan-2-ol] | – | 8200 nM | 5.41 nM

Source: US20220259212A1, “INHIBITORS OF INDOLEAMINE 2,3-DIOXYGENASE AND/OR TRYPTOPHAN 2,3-DIOXYGENASE” (Idorsia Pharmaceuticals Ltd, priority 2019, published 2022)
